Test results taken from US20040097432A1, “Method of reducing cholesterol” (ACCESS BUSINESS GROUP INTERNATIONAL LLC., priority 2002, published 2004).

System: HepG2 hepatocytes
Assay: Inhibition of cholesterol synthesis in HepG2 hepatocytes (secreted cholesterol and cholesteryl ester, AmplexRed)
Format: cell-based
Description: HepG2 hepatocytes were used as a model to study the inhibition of cholesterol synthesis according to the procedures described in Dashti, N., et al., J. Lipid Res. 28:423-436 (1987) and Mohammadi, A., et al., Arterioscler. Thromb. Vasc. Biol., […]:783-793 (1998). […] Amounts of secreted cholesterol and cholesteryl ester are measured from acetate fed hepatocyte culture media using a fluorescent indicator AmplexRed.
The same cholesterol inhibition model used in Example I was used to determine the cholesterol synthesis inhibition of theaflavins, including theaflavin and gallate esters of theaflavin.

SMILES | inhibition at 50 µg/mL (Homo sapiens, 0.05 mg/ml theaflavin, acetate fed HepG2 culture media, FIG. 1, read-out: inhibitory effect (cholesterol synthesis/release)) [%] | dose specific response of hepatocytes compared to Lipotor (same weight basis (tablet weight, 6.7% actives), HepG2, FIG. 1) | cholesterol inhibition activity (contribution among materials tested) (HepG2, dose response FIG. 2, materials of Table I)
O=c1c(O)cc([C@H]2Oc3cc(O)cc(O)c3C[C@H]2O)cc2c([C@H]3Oc4cc(O)cc(O)c4C[C@H]3O)cc(O)c(O)c12 [theaflavin, Theaflavin] | ~30 | comparable or slightly better than Lipotor® | –
O=C(O[C@@H]1Cc2c(O)cc(O)cc2O[C@@H]1c1cc(=O)c(O)c2c(O)c(O)cc([C@H]3Oc4cc(O)cc(O)c4C[C@H]3O)c2c1)c1cc(O)c(O)c(O)c1 [theaflavin-3-gallate] | – | – | provided much of the cholesterol inhibition activity
